Measured values published in publication PMC4255642 (Biochemistry, 2014).

How the values were obtained:
[1] = test system: wild-type and mutant membrane-bound F1Fo ATP synthase; type: biochemical; details: wild type and six mutants; 150 μM NBD-Cl 1 h, then 4 mM DTT 1 h
F1Fo-bound membranes = assay: Control: protecting ligand without added NBD-Cl, ATPase activity; type: biochemical, Escherichia coli; details: MgADP up to 10 mM, Pi up to 50 mM
[2] = target: αT349D mutant membrane-bound F1Fo ATP synthase (Escherichia coli, UniProt P0ABB0+P0ABB4, T349D/Y332W); type: biochemical; details: sodium azide 30 min preincubation
[3] = target: αT349Q mutant membrane-bound F1Fo ATP synthase (Escherichia coli, UniProt P0ABB0+P0ABB4, T349Q/Y332W); type: biochemical; details: sodium azide 30 min preincubation
[4] = target: βR182A mutant membrane-bound F1Fo ATP synthase (Escherichia coli, UniProt P0ABB0+P0ABB4, R183A/Y332W); type: biochemical; details: sodium azide 30 min preincubation
[5] = target: αT349A mutant membrane-bound F1Fo ATP synthase (Escherichia coli, UniProt P0ABB0+P0ABB4, T349A/Y332W); type: biochemical; details: sodium azide 30 min preincubation
[6] = target: αT349R/βR182A double mutant membrane-bound F1Fo ATP synthase (Escherichia coli, UniProt P0ABB0+P0ABB4, R183A/T349R/Y332W); type: biochemical; details: sodium azide 30 min preincubation
[7] = target: αT349R mutant membrane-bound F1Fo ATP synthase (Escherichia coli, UniProt P0ABB0+P0ABB4, T349R/Y332W); type: biochemical; details: sodium azide 30 min preincubation

O[C@@H](CS)[C@@H](O)CS (racemic) [DTT, dithiothreitol]
reversal of NBD-Cl inactivation of ATPase activity by DTT [1]: completely restored full activity in all cases

Nc1ncnc2c1ncn2[C@@H]1O[C@H](COP(=O)([O-])OP(=O)([O-])O)[C@@H](O)[C@H]1O.[Mg+2] [MgADP]
inhibitory effect of ligand alone on ATPase activity (F1Fo-bound membranes): Neither MgADP (up to 10 mM) nor Pi (up to 50 mM) had any inhibitory effect alone

O=P(O)(O)O [Pi, inorganic phosphate]
inhibitory effect of ligand alone on ATPase activity (F1Fo-bound membranes): Neither MgADP (up to 10 mM) nor Pi (up to 50 mM) had any inhibitory effect alone

[N-]=[N+]=[N-].[Na+] [azide, sodium azide]
residual ATPase activity with azide [2]: ~90%
residual ATPase activity with azide [3]: ~90%
residual ATPase activity with azide [4]: ~72%
residual ATPase activity with azide [5]: ~53%
residual ATPase activity with azide [6]: ~21%
residual ATPase activity with azide [7]: ~40%
